Experimental data from patent US12076331B2, “Inositol derivatives for use in pathological crystallization” (ETH Zurich, priority 2015, dated 2024).

Assays:
[1] = In-solution screening of CaP precipitation and aggregation in artificial renal tubular fluid (RTF); format: physicochemical; conditions: 9 mM phosphate, 8 mM calcium, 4 h
Method: (§1) Effects of (A) OEG2-IP5, (B) OEG11-IP5, (C) (OEG2)2-IP4, (D) (OEG11)2-IP4 and (E) OEG8-(IP5)2. on CaP precipitation in RTF spiked with 9 mM disodium phosphate and 8 mM calcium chloride were assessed by light microscopy followed by automated image analysis at t=4 h. Quantification of the total area covered with CaP precipitates/total area field of view (N=3, mean+SD, normalized to the control).
as §1, with “mean size of aggregates/field” for “total area covered with CaP precipitates/total area field”, “view normalized to the ctrl” for “view”
Overview table showing the minimal concentration of compound (FIG. 3 for the chemical structures) required to achieve complete inhibition of CaP precipitation (total area covered with crystals <10% of total area control); and minimal concentration required to prevent CaP crystal aggregation in the CaP screening assay (CaP aggregate size <50% of aggregate size control) (N=3).
An artificial renal tubular fluid (RTF) with a final composition of 0.05 mM oxalate, 0.005 mM sulphate, 408 mM sodium, 424 mM chloride, 0.26 mM potassium, 4 mM magnesium and 0.2 mM citrate in double distilled water was prepared according to a literature report (Fasano, J. M. et al., Kidney Int. 59, 169-178. DOI: 10.1046/j. 1523-1755.2001.00477.x, 2001). The solution was filtered with a 0.45-μm syringe filter. Twenty mM Bis-Tris buffer was added to the reported protocol to ensure pH stability throughout experiments and pH was set to 7.2. The artificial RTF was stored at room temperature for up to four months. Stock solutions of 0.25 M phosphate and 1 M calcium were prepared in double distilled water and were stored separately at −20° C.
Twenty-x final concentration phosphate, 20× final concentration calcium and 10× final concentration compound dilutions were prepared in RTF. Assay mixture consisting of 80% RTF, 10% compound dilution, 5% phosphate dilution and 5% calcium dilution was prepared in Eppendorf tubes as follows. RTF (320 μL) was mixed with 20 μL phosphate dilution (final concentration of 9 mM), 40 μL compound dilution and 20 μL calcium dilution (final concentration of 8 mM). The assay mixture was vortexed after adding each component and 380 μL of the mixture were immediately added to 8-well glass bottom slides and incubated for 4 hat RT. CaP precipitation was assessed using a Leica DM 6000B microscope (Leica Microsystems, Wetzlar, Germany) in brightfield mode. For quantification 3 wells/condition with 3-4 images/well were imaged with a 40× objective. The total area covered with CaP deposits in percentage of the field of view and the mean size of CaP aggregates were determined.
In a first step, the influence of selected IP6 analogues (FIG. 5) on CaP precipitation and growth was assessed in vitro using artificial renal tubular fluid (RTF) (Table 1). In a previous study, the inventors investigated CaP protein particle formation in serum. However, an important difference to cardiovascular calcification lies in the extremely low protein content of the renal tubular fluid vs. the high abundance of proteins in blood, which can stabilize amorphous particles. Two cut-offs were chosen for assessing efficacy. First, complete inhibition was defined as a >90% reduction of detected CaP precipitates compared to the control sample without compound. Second, inhibition of CaP aggregation was defined as a >50% reduction of the mean size of aggregates when compared to the control.

[2] = tested on: high phosphate-induced kidney damage; assay: mouse model of high phosphate-induced kidney damage; format: in vivo, C57BL/6 male mice; conditions: 100 mg/kg 3 times/week subcutaneously, high phosphate diet, vs vehicle
Method: C57BL/6 male were placed on either regular diet containing 0.35% inorganic phosphate (NP) or high phosphate diet containing 2.0% inorganic phosphate (HP). These mice were subcutaneously injected with either (OEG2)2-IP4 (100 mg/kg) or vehicle (distilled water) three times a week and then sacrificed at 20 weeks of age to harvest their blood and kidneys. Relative mRNA levels of (A) Spp1, (B) IL36a, (C) Ngal, (D) MMP3 and (E) Col1a1 in kidney tissue homogenate are shown (mean±SD, N=7, except HP vehicle group N=6, two-way ANOVA with Sidak's multiple comparison between (OEG2)2-IP4 vs. vehicle control within the respective diet group, ns—not significant, * p<0.05). […]
C57BL/6 male mice (12 weeks of age) were placed on either regular diet containing 0.35% inorganic phosphate or high phosphate diet containing 2.0% inorganic phosphate. […] Serum FGF23 levels were measured using intact FGF23 ELISA (Kinos) according to the manufacturers' protocols. Serum and urine levels of phosphate were measured using Fuji Dri-Chem slides and the analyzer (Dri-Chem NX500V, Fuji, Tokyo, Japan). […] Quantitative RT-PCR reactions were performed using 20 ng of cDNA incubated with 410 nM of each primer and 6 μL of SYBR Green PCR Master mix (Toyoba, Osaka, Japan THUNDERBIRD SYBR qPCR Mix QPS-201) in a total volume of 12 μl. […] The cortex and the cortico-medullary junction were evaluated separately. […]

For `COCCOCCO[C@@H]1C(OP(=O)(O)O)[C@H](OCCOCCOC)[C@@H](OP(=O)(O)O)C(OP(=O)(O)O)[C@H]1OP(=O)(O)O` (stereo partly drawn) [(OEG2)2-IP4], the “effect on CaP precipitation/crystallization in words” value [1] was “did not further increase the inhibitory activity”, the “fibrosis, collagen volume fraction (Picro-Sirius red staining of the kidneys)” value [2] was “significantly reduces fibrosis” and the “kidney damage and fibrosis markers (Spp1, IL36a, Ngal, MMP3, Col1a1 mRNA)” value [2] was “significantly reduced”.
